Assays:
[1] = in vivo; cited from earlier work
[2] = test system: Bt::tetR P1TDP^GH023-NanoLuc; type: in vivo, mice
Experimental: Germ-free Swiss Webster mice were orally gavaged with a mixture of 1×10^8 CFU of each of 14 human gut microbes shown in FIG. 12D and Table 3. With the exception of the reporter strain, all species are sensitive to gentamicin and/or erythromycin (data not shown). Colonization was allowed to stabilize for at least 7 days prior to the start of the experiment. Fecal pellets were collected daily, and mice were given aTC (100 μg/mL) in the drinking water for 48 hours after stool collection on Day 3. Fecal samples were homogenized, and fibrous/insoluble matter removed as described above. From the supernatant, 200 μL was stored for DNA purification as previously described (Goodman, A. L. et al., 2011, Nat. Protoc., 6:1969-1980) and subsequent qPCR analysis (described below), 10 μL was used for CFU determination of the reporter strain by plating dilutions on BHI-blood agar plates containing gentamicin and erythromycin, and 500 μL was used for luminescence measurements (described below).
At each time point, abundance of each species was assessed by qPCR from fecal DNA using strain specific primers described previously (Cullen, T. W. et al., 2015, Science, 347:170-175). qPCR was performed as described (Goodman, A. L. et al., 2009, Cell Host and Microbe, 6:279-289; Martens, E. C. et al., 2008, Cell Host and Microbe, 4:447-457) using a CFX96 instrument (BioRad) and SYBR FAST universal master mix (KAPA Biosystems). Mean strain quantities were calculated using a standard curve.
The 500 μL collected from the resuspended fecal supernatant was centrifuged at 21,130×g for 3 minutes to pellet bacterial cells, which were then resuspended in 50 μL 1× BugBuster (Novagen) in 1×PBS and lysed by one round of freeze-thaw and 10 minutes of nutation at 26° C. Samples were centrifuged at 21,130×g for 10 minutes at 4° C., and 10 μL of the supernatant was mixed with an equal volume of NanoLuc Reaction Buffer to induce luminescence production. Luminescence was measured after a 5 minute incubation at 26° C. on a plate reader (BioTek Synergy H1) with an integration time of 1 second at a gain setting of 100. […]

[3] = test system: sialidase BT0455; assay: Sialidase activity in murine fecal samples (pNP-SA hydrolysis, LC-MS); type: in vivo, Bacteroides thetaiotaomicron; conditions: mice carrying Bt^RS
Experimental: Groups of 6 germ-free Swiss Webster mice were orally gavaged with 1×10^9 CFU of the desired B. thetaiotaomicron strain. Fecal samples (˜100-200 mg) were collected daily for 12 days. aTC (100 μg/mL) was administered in drinking water for 12 hours after fecal collection on day 1. Fecal samples were homogenized in 1 mL of 1× tris-buffered saline (TBS) with a single 5 mm stainless steel bead using a bead beater (BioSpec Products) at 26° C. for 1 minute on the high setting, followed by vortexing at top speed for 8 minutes. Samples were then centrifuged at 500×g for 1 minute to pellet fibrous and insoluble matter. […]
Bacterial cells (collected and stored as described above) were lysed through one round of freeze-thaw followed by nutation for 10 minutes at 26° C. […] Quantification of the enzyme reaction product, p-nitrophenol (pNP), was identical to the LC-MS analysis of aTC described above, but with reduced injection volume (5 μL) and methanol replacing acetonitrile as solvent B for the reversed phase chromatography. […] Linear fit values were normalized to amount of protein in the cellular lysates added to each reaction, which was determined by Bradford. […]

Question: For Cc1c2c(c(O)c3c(O)cccc13)C(=O)[C@]1(O)C(=O)C(C(N)=O)=C(O)[C@@H](N(C)C)[C@@H]1C2 [aTC, Anhydrotetracycline], which “concentration in drinking water that does not adversely affect mouse health” value [1] is on record?
Answer: 100 µg/mL

Question: What about the “complete repression after removal of the inducer” value ([2]; 14-species community) of the same compound?
Answer: 7 to 9 days

Question: What about the “increase of luminescence in fecal pellets” value ([2]; 14-species community, within 24 hours of 100 μg/mL aTC) of the same compound?
Answer: ~4,500 fold

Question: What about the “impact on community structure” value ([2]; alpha and beta diversity, 19-day experiment) of the same compound?
Answer: did not impact community structure

Question: What about the “sialidase activity again undetectable after aTC removal” value [3] of the same compound?
Answer: 4 days

Reference: patent publication US11549115B2, “Compositions and methods for regulated gene expression” (YALE UNIVERSITY, priority 2017, dated 2023)
